{
  "source": "PubChem BioAssay AID743160",
  "about": "(Sanford-Burnham Center for Chemical Genomics, 2013)",
  "note": "Activity calls are given as the source filed them. How the calls were made is not given here.",
  "data": [
    {"test_system": "H9c2 cells, DAPI nuclear count (cytotoxicity), overnight", "assay": "H9c2 cardiomyoblast cytotoxicity by nuclear count, SAR follow-up, cytotoxicity control for triacylglycerol accumulation inhibitor project, cell-based, DAPI fluorescence (AID 743160)", "values": [
      {"smiles": "O=C(Nc1cccc(-c2nc3ccccc3[nH]2)c1)c1cccc2c1C(=O)N(CCc1ccccc1)C2", "IC50": "> 50 µM (inactive)"},
      {"smiles": "COCCN1Cc2cccc(C(=O)Nc3cccc(C(=O)Nc4ccccc4)c3)c2C1=O", "IC50": "> 50 µM (inactive)"},
      {"smiles": "CSCCCN1Cc2cccc(C(=O)Nc3cccc(-c4nc5ccccc5[nH]4)c3)c2C1=O", "IC50": "> 50 µM (inactive)"},
      {"smiles": "COc1cc2c(cc1OC)C(C)N(C(=O)c1cc3c(C)cc(C)cc3[nH]1)CC2", "note": "(stereo unspecified)", "IC50": "> 50 µM (inactive)"},
      {"smiles": "O=C(Nc1cccc(-c2nc3ccccc3[nH]2)c1)c1cccc2c1C(=O)N(CCN1CCOCC1)C2", "IC50": "> 50 µM (inactive)"},
      {"smiles": "Cc1ccc(-c2csc(NC(=O)CSc3nc4ccccc4c(=O)n3CCCN(C)C)n2)cc1", "IC50": "> 50 µM (inactive)"},
      {"smiles": "CCN(CC)S(=O)(=O)c1ccc(N2CCOCC2)c(NC(=O)c2[nH]c(C)c(C(C)=O)c2C)c1", "IC50": "> 50 µM (inactive)"},
      {"smiles": "Cc1cc(C)c2nc(-c3ccncc3)cc(C(=O)N3CCN(Cc4ccccc4Cl)CC3)c2c1", "IC50": "23.6 µM (inactive)"},
      {"smiles": "O=C(Nc1cccc(-c2nc3ccccc3[nH]2)c1)c1cccc2c1C(=O)N(CCOc1ccccc1)C2", "IC50": "> 50 µM (inactive)"},
      {"smiles": "COCCN1Cc2cccc(C(=O)Nc3cccc(-c4nc5ccc(F)cc5[nH]4)c3)c2C1=O", "IC50": "> 50 µM (inactive)"},
      {"smiles": "COc1ccccc1CCN1Cc2cccc(C(=O)Nc3cccc(-c4nc5ccccc5[nH]4)c3)c2C1=O", "IC50": "> 50 µM (inactive)"},
      {"smiles": "COc1ccc(CCN2Cc3cccc(C(=O)Nc4cccc(-c5nc6ccccc6[nH]5)c4)c3C2=O)cc1OC", "IC50": "> 50 µM (inactive)"},
      {"smiles": "COCCN1Cc2cccc(C(=O)Nc3cccc(C(=O)Nc4ccccc4OC)c3)c2C1=O", "IC50": "> 50 µM (inactive)"},
      {"smiles": "CCOc1ccc(NC(=O)CN(C)C(=O)c2cc(-c3ccc(OC)cc3)nc3ccccc23)cc1OCC", "IC50": "> 50 µM (inactive)"},
      {"smiles": "COCCN1Cc2cccc(C(=O)Nc3nc4ccccc4[nH]3)c2C1=O", "IC50": "> 50 µM (inactive)"},
      {"smiles": "COCCN1Cc2cccc(C(=O)Nc3cccc(-c4nc5ccc(C(F)(F)F)cc5[nH]4)c3)c2C1=O", "IC50": "> 50 µM (inactive)"},
      {"smiles": "Cc1ccc(-c2nc(NC(=O)c3cc(C(C)(C)C)nn3C)sc2C)cc1Cl", "IC50": "> 50 µM (inactive)"},
      {"smiles": "CCOC(=O)c1cc(-c2ccccc2)sc1NC(=O)C(C)N1C(=O)NC(C)(c2ccc(Cl)cc2)C1=O", "note": "(stereo unspecified)", "IC50": "> 50 µM (inactive)"},
      {"smiles": "COc1cccc(-c2cc(C(=O)Nc3ccc(N(C)C(C)=O)cc3)c3cc(Br)ccc3n2)c1", "IC50": "> 50 µM (inactive)"},
      {"smiles": "O=C(Nc1cccc2ncccc12)c1ccc(Cl)cc1", "IC50": "> 50 µM (inactive)"},
      {"smiles": "O=C(CCC(=O)N1CCOc2ccc(Cl)cc21)NCCCN1CCC(Cc2ccccc2)CC1", "IC50": "13.5 µM (inactive)"},
      {"smiles": "O=C(Nc1cccc(-c2nc3ccccc3[nH]2)c1)c1cccc2c1C(=O)N(CC1CC1)C2", "IC50": "> 50 µM (inactive)"},
      {"smiles": "COCCN1Cc2cccc(C(=O)Nc3cccc(-c4nc5ccc(Cl)cc5[nH]4)c3)c2C1=O", "IC50": "> 50 µM (inactive)"},
      {"smiles": "Cc1ccccc1NC(=O)CSc1nc(Nc2ccccc2)nc(N2CCOCC2)n1", "IC50": "> 50 µM (inactive)"},
      {"smiles": "CCn1c(SCC(=O)Nc2nc(-c3ccc(C)cc3)cs2)nnc1-c1ccccc1O", "IC50": "8.1 µM (inactive)"},
      {"smiles": "COCCN1Cc2cccc(C(=O)Nc3cccc(-c4nc5ccc(C)cc5[nH]4)c3)c2C1=O", "IC50": "> 50 µM (inactive)"},
      {"smiles": "CN(C)CCCn1c(SCC(=O)Nc2nc(-c3cccc(Br)c3)cs2)nc2ccccc2c1=O", "IC50": "27.1 µM (inactive)"},
      {"smiles": "COc1cc(NC(=O)c2cc([N+](=O)[O-])ccc2NC(=O)CN2CCN(c3ccccn3)CC2)cc(OC)c1", "IC50": "> 50 µM (inactive)"},
      {"smiles": "COCCn1cnc2cccc(C(=O)Nc3cccc(-c4nc5ccccc5[nH]4)c3)c2c1=O", "IC50": "> 50 µM (inactive)"},
      {"smiles": "O=[N+]([O-])c1ccc(Nc2nc(NC3CCCCC3)nc(N3CCCC3)n2)cc1", "IC50": "11 µM (inactive)"},
      {"smiles": "CCCCSc1nc2ccc(Nc3nc(N4CCOCC4)nc(N4CCOCC4)n3)cc2s1", "IC50": "> 50 µM (inactive)"},
      {"smiles": "COCCN1Cc2cccc(C(=O)Nc3nc4ccccc4n3C)c2C1=O", "IC50": "> 50 µM (inactive)"},
      {"smiles": "Cc1ccccc1NC(=O)CSc1nc2ccc(Nc3nc(N4CCOCC4)nc(N4CCOCC4)n3)cc2s1", "IC50": "40 µM (inactive)"},
      {"smiles": "COCCN1Cc2cccc(C(=O)Nc3cccnc3)c2C1=O", "IC50": "> 50 µM (inactive)"},
      {"smiles": "CCCCN1Cc2cccc(C(=O)Nc3cccc(-c4nc5ccccc5[nH]4)c3)c2C1=O", "IC50": "> 50 µM (inactive)"},
      {"smiles": "O=C(CSc1nc2ccc(Nc3nc(N4CCOCC4)nc(N4CCOCC4)n3)cc2s1)Nc1ccccc1Cl", "IC50": "27.8 µM (inactive)"},
      {"smiles": "CCC(C)(C)NC(=O)C(c1ccc(OC)cc1)N(Cc1cccs1)C(=O)CCC(=O)Nc1cc(C)on1", "note": "(stereo unspecified)", "IC50": "> 50 µM (inactive)"},
      {"smiles": "CCCC(=O)Nc1nc2ccc(NC(=O)c3c(F)c(F)c(OC)c(F)c3F)cc2s1", "IC50": "> 50 µM (inactive)"},
      {"smiles": "COCCN1Cc2cccc(C(=O)NCc3cccc(N(C)C)c3)c2C1=O", "IC50": "> 50 µM (inactive)"},
      {"smiles": "O=C(CSc1nc2ccc(Nc3nc(N4CCOCC4)nc(N4CCOCC4)n3)cc2s1)NCc1ccco1", "IC50": "> 50 µM (inactive)"},
      {"smiles": "Cc1ccc(Nc2nc(OC(C(F)(F)F)C(F)(F)F)nc(N3CCOCC3)n2)cc1", "IC50": "> 50 µM (inactive)"},
      {"smiles": "CCOC(=O)c1cccc(NC(=O)c2cccc3c2C(=O)N(CCOC)C3)c1", "IC50": "> 50 µM (inactive)"},
      {"smiles": "CCC(C)(C)NC(=O)C(c1ccc(C)cc1)N(Cc1ccco1)C(=O)CCC(=O)Nc1nccs1", "note": "(stereo unspecified)", "IC50": "> 50 µM (inactive)"},
      {"smiles": "Cc1cccc2c(C(=O)N3CCN(c4ccccc4)CC3)cc(-c3ccncc3)nc12", "IC50": "> 50 µM (inactive)"},
      {"smiles": "CCCC(=O)Nc1nc2ccc(NC(=O)c3ccccc3F)cc2s1", "IC50": "> 50 µM (inactive)"},
      {"smiles": "CCOCCN1Cc2cccc(C(=O)Nc3cccc(-c4nc5ccccc5[nH]4)c3)c2C1=O", "IC50": "> 50 µM (inactive)"},
      {"smiles": "CCOc1ccccc1NC(=O)c1cccc(NC(=O)c2ccco2)c1", "IC50": "23.2 µM (inactive)"},
      {"smiles": "COCCN1Cc2cccc(C(=O)Nc3cccc(-c4nc5ccccc5[nH]4)c3)c2C1=O", "IC50": "> 50 µM (inactive)"},
      {"smiles": "COCCCN1Cc2cccc(C(=O)Nc3cccc(-c4nc5ccccc5[nH]4)c3)c2C1=O", "IC50": "> 50 µM (inactive)"},
      {"smiles": "O=C1COc2ccc(C(=O)CSc3nc4ccccc4c(=O)n3-c3ccc(Cl)c(Cl)c3)cc2N1", "IC50": "7.69 µM (inactive)"},
      {"smiles": "Cc1ccccc1OCCNc1cc(N2CC(C)NC(C)C2)ccc1[N+](=O)[O-]", "note": "(stereo unspecified)", "IC50": "> 50 µM (inactive)"}
    ]}
  ]
}
